Data: patent publication US7138361B2, “Herbicidal heterocycles” (E. I. du Pont de Nemours and Company, priority 2000, dated 2006)

Experiments:
Assay type in all cases: in vivo
[1] = system: Surinam grass (Brachiaria decumbens); assay: Test B postemergence
Outline: (§1)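 Seeds were planted and sprayed preemergence with test chemical in a non-phytotoxic solvent mixture containing surfactant; postemergence plants (2 to 18 cm, 1- to 4-leaf stage) received the same formulation. Greenhouse hold 13 to 15 days, then visual rating versus untreated controls on a 0–100 scale (0 no effect, 100 complete control).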

[2] = system: barnyardgrass (Echinochloa crus-galli); assay: Test B postemergence
Outline: as §1

[3] = system: blackgrass (Alopecurus myosuroides); assay: Test B postemergence
Outline: as §1

[4] = system: cocklebur (Xanthium strumarium); assay: Test B postemergence
Outline: as §1

corn (Zea mays) [5] = assay: Test B postemergence
Outline: as §1

[6] = system: crabgrass (Digitaria sanguinalis); assay: Test B postemergence; conditions: Rate 125 g/ha, scale 0 to 100, 0 no effect, 100 complete control
Outline: as §1

[7] = system: giant foxtail (Setaria faberii); assay: Test B postemergence; conditions: Rate 125 g/ha, scale 0 to 100, 0 no effect, 100 complete control
Outline: as §1

[8] = system: lambsquarters (Chenopodium album); assay: Test B postemergence; conditions: Rate 125 g/ha, scale 0 to 100, 0 no effect, 100 complete control
Outline: as §1

[9] = system: morning glory (Ipomoea hederacea); assay: Test B postemergence; conditions: Rate 125 g/ha, scale 0 to 100, 0 no effect, 100 complete control
Outline: as §1

[10] = system: pigweed (Amaranthus retroflexus); assay: Test B postemergence; conditions: Rate 125 g/ha, scale 0 to 100, 0 no effect, 100 complete control
Outline: as §1

[11] = system: velvetleaf (Abutilon theophrasti); assay: Test B postemergence; conditions: Rate 125 g/ha, scale 0 to 100, 0 no effect, 100 complete control
Outline: as §1

[12] = system: wheat (Triticum aestivum); assay: Test B postemergence; conditions: Rate 125 g/ha, scale 0 to 100, 0 no effect, 100 complete control
Outline: as §1

wild oat (Avena fatua) = assay: Test B postemergence; conditions: Rate 125 g/ha, scale 0 to 100, 0 no effect, 100 complete control
Outline: as §1

[13] = system: Surinam grass (Brachiaria decumbens); assay: Test B preemergence
Outline: as §1

[14] = system: barnyardgrass (Echinochloa crus-galli); assay: Test B preemergence
Outline: as §1

[15] = system: cocklebur (Xanthium strumarium); assay: Test B preemergence
Outline: as §1

corn (Zea mays) [16] = assay: Test B preemergence
Outline: as §1

[17] = system: crabgrass (Digitaria sanguinalis); assay: Test B preemergence
Outline: as §1

[18] = system: giant foxtail (Setaria faberii); assay: Test B preemergence
Outline: as §1

[19] = system: lambsquarters (Chenopodium album); assay: Test B preemergence
Outline: as §1

[20] = system: morning glory (Ipomoea hederacea); assay: Test B preemergence
Outline: as §1

[21] = system: pigweed (Amaranthus retroflexus); assay: Test B preemergence
Outline: as §1

rice (Oryza saliva) [22] = assay: Test B preemergence
Outline: as §1

[23] = system: velvetleaf (Abutilon theophrasti); assay: Test B preemergence
Outline: as §1

[24] = system: barnyardgrass (Echinochloa crus-galli); assay: Test C flooded paddy test; conditions: for Barnyardgrass plant response rating: Flooded Paddy, scale 0 to 100, 0 no effect, 100 complete control; for Plant response rating, Barnyardgrass: scale 0 to 100 (0 no effect, 100 complete control)
Outline: (§2)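 Rice and three paddy weeds were grown to the 2-leaf stage under flooded conditions, then treated and kept in a greenhouse for 12–14 days. Response was rated visually against untreated controls on a 0–100 scale, where 100 is complete control.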

[25] = system: duck salad (Heteranthera limosa); assay: Test C flooded paddy test; conditions: for Ducksalad plant response rating: Flooded Paddy, scale 0 to 100, 0 no effect, 100 complete control; for Plant response rating, Ducksalad: scale 0 to 100 (0 no effect, 100 complete control)
Outline: as §2

rice (Oryza saliva) [26] = assay: Test C flooded paddy test; conditions: for Rice plant response rating: Flooded Paddy, scale 0 to 100, 0 no effect, 100 complete control; for Plant response rating, Rice: scale 0 to 100 (0 no effect, 100 complete control)
Outline: as §2

[27] = system: smallflower flatsedge (Cyperus difformis); assay: Test C flooded paddy test; conditions: for Flatsedge plant response rating: Flooded Paddy, scale 0 to 100, 0 no effect, 100 complete control; for Plant response rating, Flatsedge: scale 0 to 100 (0 no effect, 100 complete control)
Outline: as §2

[28] = Rate 125 g/ha, scale 0 to 100, 0 no effect, 100 complete control
[29] = Rate 500 g/ha, scale 0 to 100, 0 is no effect, 100 is complete control, 13 to 15 days
[30] = Preemergence, Rate 500 g/ha, scale 0 to 100, 0 no effect, 100 complete control
[31] = preemergence, Rate 125 g/ha, scale of 0 to 100 where 0 is no effect and 100 is complete control, 13 to 15 days
[32] = flooded paddy test, Rate 62 g/ha
[33] = flooded paddy test, Rate 125 g/ha
[34] = flooded paddy test, Rate 250 g/ha
[35] = flooded paddy test, Rate 62 g/ha, visually evaluated after 12 to 14 days, 0 = no effect, 100 = complete control

CCOc1cccc(N2CCC(n3ccc(C(C)CC)n3)C2=O)c1 (stereo not shown) [Compound 126]
Plant response rating, Surinam grass [1, 28]: 0
Plant response rating, Surinam grass [1, 29]: 0
Plant response rating, Barnyardgrass [2, 28]: 0
Plant response rating, Barnyardgrass [2, 29]: 80
Plant response rating, Blackgrass [3, 28]: 0
Plant response rating, Blackgrass [3, 29]: 0
Plant response rating, Cocklebur [4, 28]: 0
Plant response rating, Cocklebur [4, 29]: 70
Plant response rating, Corn (corn (Zea mays) [5]; [28]): 0
Plant response rating, Corn (corn (Zea mays) [5]; [29]): 0
Plant response rating, Crabgrass [6]: 0
Plant response rating, Foxtail, Giant [7]: 0
Plant response rating, Lambsquarters [8]: 100
Plant response rating, Morningglory [9]: 0
Plant response rating, Pigweed [10]: 30
Plant response rating, Velvetleaf [11]: 0
Plant response rating, Wheat [12]: 0
Plant response rating, Wild Oat (wild oat (Avena fatua)): 0
Plant response rating, Surinam grass [13, 30]: 100
Plant response rating, Surinam grass [13, 31]: 100
Plant response rating, Barnyardgrass [14, 30]: 100
Plant response rating, Barnyardgrass [14, 31]: 100
Plant response rating, Cocklebur [15, 30]: 70
Plant response rating, Cocklebur [15, 31]: 50
Plant response rating, Corn (corn (Zea mays) [16]; [30]): 50
Plant response rating, Corn (corn (Zea mays) [16]; [31]): 30
Plant response rating, Crabgrass [17, 30]: 100
Plant response rating, Crabgrass [17, 31]: 100
Plant response rating, Foxtail, Giant [18, 30]: 100
Plant response rating, Foxtail, Giant [18, 31]: 100
Plant response rating, Lambsquarters [19, 30]: 100
Plant response rating, Lambsquarters [19, 31]: 100
Plant response rating, Morningglory [20, 30]: 100
Plant response rating, Morningglory [20, 31]: 70
Plant response rating, Pigweed [21, 30]: 100
Plant response rating, Pigweed [21, 31]: 100
Plant response rating, Rice (rice (Oryza saliva) [22]; [30]): 100
Plant response rating, Rice (rice (Oryza saliva) [22]; [31]): 70
Plant response rating, Velvetleaf [23, 30]: 60
Plant response rating, Velvetleaf [23, 31]: 0
Barnyardgrass plant response rating ([24]; Rate 250 g/ha): 100
Barnyardgrass plant response rating ([24]; Rate 500 g/ha): 100
Plant response rating, Barnyardgrass [24, 32]: 35
Plant response rating, Barnyardgrass [24, 33]: 100
Ducksalad plant response rating ([25]; Rate 250 g/ha): 100
Ducksalad plant response rating ([25]; Rate 500 g/ha): 100
Plant response rating, Ducksalad [25, 32]: 60
Plant response rating, Ducksalad [25, 33]: 100
Rice plant response rating (rice (Oryza saliva) [26]; Rate 250 g/ha): 20
Rice plant response rating (rice (Oryza saliva) [26]; Rate 500 g/ha): 60
Plant response rating, Rice (rice (Oryza saliva) [26]; [32]): 0
Plant response rating, Rice (rice (Oryza saliva) [26]; [33]): 20
Flatsedge plant response rating ([27]; Rate 250 g/ha): 100
Flatsedge plant response rating ([27]; Rate 500 g/ha): 100
Plant response rating, Flatsedge [27, 32]: 100
Plant response rating, Flatsedge [27, 33]: 100

COc1cc(N2CCC(n3ccc(C(C)(C)C)n3)C2=O)cc2ccccc12 (stereo not shown) [Compound 136]
Plant response rating, Surinam grass [1, 28]: 0
Plant response rating, Surinam grass [1, 29]: 0
Plant response rating, Barnyardgrass [2, 28]: 0
Plant response rating, Barnyardgrass [2, 29]: 0
Plant response rating, Blackgrass [3, 28]: 0
Plant response rating, Blackgrass [3, 29]: 0
Plant response rating, Cocklebur [4, 28]: 0
Plant response rating, Cocklebur [4, 29]: 0
Plant response rating, Corn (corn (Zea mays) [5]; [28]): 0
Plant response rating, Corn (corn (Zea mays) [5]; [29]): 0
Plant response rating, Crabgrass [6]: 0
Plant response rating, Foxtail, Giant [7]: 0
Plant response rating, Lambsquarters [8]: 0
Plant response rating, Morningglory [9]: 0
Plant response rating, Pigweed [10]: 0
Plant response rating, Velvetleaf [11]: 0
Plant response rating, Wheat [12]: 0
Plant response rating, Wild Oat (wild oat (Avena fatua)): 0
Plant response rating, Surinam grass [13, 30]: 0
Plant response rating, Surinam grass [13, 31]: 0
Plant response rating, Barnyardgrass [14, 30]: 0
Plant response rating, Barnyardgrass [14, 31]: 0
Plant response rating, Cocklebur [15, 30]: 0
Plant response rating, Cocklebur [15, 31]: 0
Plant response rating, Corn (corn (Zea mays) [16]; [30]): 0
Plant response rating, Corn (corn (Zea mays) [16]; [31]): 0
Plant response rating, Crabgrass [17, 30]: 70
Plant response rating, Crabgrass [17, 31]: 0
Plant response rating, Foxtail, Giant [18, 30]: 0
Plant response rating, Foxtail, Giant [18, 31]: 0
Plant response rating, Lambsquarters [19, 30]: 100
Plant response rating, Lambsquarters [19, 31]: 100
Plant response rating, Morningglory [20, 30]: 0
Plant response rating, Morningglory [20, 31]: 0
Plant response rating, Pigweed [21, 30]: 60
Plant response rating, Pigweed [21, 31]: 0
Plant response rating, Rice (rice (Oryza saliva) [22]; [30]): 0
Plant response rating, Rice (rice (Oryza saliva) [22]; [31]): 0
Plant response rating, Velvetleaf [23, 30]: 0
Plant response rating, Velvetleaf [23, 31]: 0
Barnyardgrass plant response rating ([24]; Rate 500 g/ha): 0
Plant response rating, Barnyardgrass [24, 33]: 0
Plant response rating, Barnyardgrass [24, 34]: 0
Plant response rating (scale 0 to 100), Barnyardgrass [24, 35]: 0
Ducksalad plant response rating ([25]; Rate 500 g/ha): 0
Plant response rating, Ducksalad [25, 33]: 0
Plant response rating, Ducksalad [25, 34]: 0
Plant response rating (scale 0 to 100), Ducksalad [25, 35]: 0
Rice plant response rating (rice (Oryza saliva) [26]; Rate 500 g/ha): 0
Plant response rating, Rice (rice (Oryza saliva) [26]; [33]): 0
Plant response rating, Rice (rice (Oryza saliva) [26]; [34]): 0
Plant response rating (scale 0 to 100), Rice (rice (Oryza saliva) [26]; [35]): 0
Flatsedge plant response rating ([27]; Rate 500 g/ha): 0
Plant response rating, Flatsedge [27, 33]: 0
Plant response rating, Flatsedge [27, 34]: 0
Plant response rating (scale 0 to 100), Flatsedge [27, 35]: 0
